Square brackets hold non-standard residues; d marks the D form. Peptide text beside a SMILES is read from it. dMet(O) = CS(=O)CC[C@@H](N)C(=O)O; Phe(ol) = N[C@H](CO)Cc1ccccc1
Test system: human subject with postmenopausal osteoporosis or low bone mass
Assay: treatment of human subject with osteoporosis, vertebral density by dual-energy photon absorptiometry
Format: in vivo
Details: 30 mg intravenously daily (substitutes at comparable levels), 28 days active / 28 days calcium, two years
Method: A human subject weighing about 60 kg (132 lbs), suffering from postmenopausal osteoporosis, is treated by a method of this invention. Specifically, for two years, the enkephalin-degrading enzyme inhibitor DL-3-mercapto-2-benzylpropanoylglycine is administered orally, in a cyclical regimen, where each cycle consists of an active period of 28 days during which a tablet containing 160 mg of said inhibitor is administered each day, followed by a non-active period of 28 days during which the subject receives a daily supplement of calcium (1,000 mg/day), with repeat of cycle.
A human subject weighing about 60 kg (132 lbs), suffering from postmenopausal osteoporosis, is treated by a method of this invention. Specifically, for two years, the compound H-Tyr-D-Ala-Gly-Phe-D-Leu-OH ("DADLE") is administered to the subject, in a cyclical regimen, where each cycle consists of an active period of 28 days during which a solution containing 30 mg of DADLE is administered intravenously every day, followed by a non-active period of 28 days during which the patient receives a daily supplement of calcium (1,000 mg/day), with repeat of cycle.
(§1) A human subject weighing about 60 kg (132 lbs), suffering from postmenopausal osteoporosis, is treated by a method of this invention. Specifically, for two years, an enkephalin of the formula Tyr-D-Cys(S-t-butylthioether)-Gly-Phe-Leu-Thr(O-t-butylether) ("BUBUC") is administered to the subject, in a cyclical regimen, where each cycle consists of an active period of 28 days during which a solution containing 30 mg of BUBUC is intravenously administered each day, followed by a non-active period of 28 days during which the patient receives a daily supplement of calcium (1,000 mg/day), with repeat of cycle.
as §1, with “years, the” for “years, an”, “enkephalin secretagogue Tyr-Arg^1,” for “enkephalin of the formula Tyr-D-Cys(S-t-butylthioether)-Gly-Phe-Leu-Thr(O-t-butylether) ("BUBUC")”, “of Tyr-Arg” for “of BUBUC”, “the subject” for “the patient”, “cycle. […]” for “cycle.”
A human subject weighing about 60 kg (132 lbs), suffering from postmenopausal osteoporosis, is treated by a method of this invention. Specifically, each day for five years, the subject is administered 3 tablets, comprised as follows.
A human subject weighing about 60 kg (132 lbs) is evaluated approximately four years after spontaneous menopause, and is found to have low bone mass. The subject is then treated by a method of this invention to treat osteoporosis. Specifically, once each month for five years, the subject is administered, via intravenous injection, 5 ml of a solution comprised as follows.

Compound	density of vertebrae / bone mass
C[C@@H](NC(=O)[C@@H](N)Cc1ccc(O)cc1)C(=O)NCC(=O)N(C)[C@@H](Cc1ccccc1)C(=O)N[C@H](CO)CC[S+](C)[O-] (stereo partly drawn) [H-Tyr-D-Ala-Gly-N-methyl-Phe-Met(sulfoxide)(ol)]	substantially similar results
CC(C)C[C@H](NC(=O)[C@H](Cc1ccccc1)NC(=O)CNC(=O)[C@@H](C)NC(=O)[C@@H](N)Cc1ccc(O)cc1)C(N)=O [H-Tyr-D-Ala-Gly-Phe-Leu-NH2]	substantially similar results
CSCC[C@H](NC(=O)[C@H](Cc1ccccc1)NC(=O)CNC(=O)[C@@H](C)NC(=O)[C@@H](N)Cc1ccc(O)cc1)C(N)=O [H-Tyr-D-Ala-Gly-Phe-Met-NH2]	substantially similar results
CSCC[C@H](NC(=O)[C@H](Cc1ccccc1)NC(=O)[C@@H](C)NC(=O)[C@@H](N)Cc1ccc(O)cc1)C(N)=O [H-Tyr-D-Ala-Phe-Met-NH2] (H-Y[dA]FM-NH2)	substantially similar results
C[S+]([O-])CC[C@@H](NC(=O)[C@@H](N)Cc1ccc(O)cc1)C(=O)NCC(=O)N[C@H](CO)Cc1ccccc1 (stereo partly drawn) [H-Tyr-D-Met(O)-Gly-Phe(ol)] (H-Y[dMet(O)]G[Phe(ol)])	substantially similar results
CSCC[C@@H](NC(=O)[C@@H](N)Cc1ccc(O)cc1)C(=O)NCC(=O)N[C@@H](Cc1ccccc1)C(=O)N1CCC[C@H]1C(N)=O [H-Tyr-D-Met-Gly-Phe-Pro-NH2] (H-Y[dM]GFP-NH2)	substantially similar results
CC(C)C[C@H](NC(=O)[C@H](Cc1ccccc1)NC(=O)CNC(=O)[C@@H](COC(C)(C)C)NC(=O)[C@@H](N)Cc1ccc(O)cc1)C(=O)N[C@H](C(=O)O)[C@@H](C)OC(C)(C)C [H-Tyr-D-Ser(O-t-butylether)-Gly-Phe-Leu-Thr(O-t-butylether)]	substantially similar results
CC(C)C[C@H](NC(=O)[C@H](Cc1ccccc1)NC(=O)CNC(=O)[C@@H](COC(C)(C)C)NC(=O)[C@@H](N)Cc1ccc(O)cc1)C(=O)N[C@H](C(=O)O)[C@@H](C)O [H-Tyr-D-Ser(O-t-butylether)-Gly-Phe-Leu-Thr]	substantially similar results
H-(2,6-dimethyl-Try)-D-Ala-NH-phenylpropyl	substantially similar results
H-Tyr-D-Pen-Gly-Phe-Pen	substantially similar results
